Assay [1] can be described thus: Cytotoxicity against human MDA435/LCC6MDR cells after 5 days by MTS assay. The following applies: 120 h. Format: functional, cell-based.
Assay [2] can be described thus: Cytotoxicity against human MDA435/LCC6 cells after 5 days by MTS assay. The class given is functional, cell-based. The note with it: MDA-435/LCC6, 120 h. Background: Tetrazolium assays rely on reduction of a dye to a coloured formazan, in cell work by metabolically active cells.
In the next assay the test system is L929. Description: Cytotoxicity against mouse L929 cells after 3 days by MTS assay. Format: cell-based. The following applies: L929, 72 h.
Assay [3] is described as follows: Cytotoxicity against human MDA435/LCC6 cells after 3 days by MTS assay. The class given is cell-based. The note with it: MDA-435/LCC6, 72 h.
Assay [4] in a line: Cytotoxicity against human MDA435/LCC6MDR cells after 3 days by MTS assay. The class given is ADME, cell-based. The following applies: 72 h.

The structures appear in SMILES notation. pIC50: −log10 of the molar value.

The record followed here is ChEMBL document CHEMBL3286309, “4,5-Di-substituted benzyl-imidazol-2-substituted amines as the structure template for the design and synthesis of reversal agents against P-gp-mediated multidrug resistance breast cancer cells” (Eur J Med Chem, 2014).

In the case of `CC(=O)O[C@H]1C(=O)[C@@]2(C)[C@H]([C@H](OC(=O)c3ccccc3)[C@]3(O)C[C@H](OC(=O)[C@H](O)[C@@H](NC(=O)c4ccccc4)c4ccccc4)C(C)=C1C3(C)C)[C@]1(OC(C)=O)CO[C@@H]1C[C@@H]2O` [PACLITAXEL], the results for the pIC50 in assay [1] and in assay [2] were 6.83 and 8.59, respectively.

On to `CCN(CC)c1ccc(Cc2c(Cc3ccc(OC)c(OC)c3)nc(NC(=O)c3cc(OC)c(OC)c(OC)c3)n2C)cc1`, for which the pIC50 in the assay with L929 was 4.32; in assay [3] it was 4.34; in assay [4], 4.42.

As for `CCN(CC)c1ccc(Cc2c(Cc3ccc(OC)c(OC)c3)nc(N(C(=O)/C=C/c3cc(OC)c(OC)c(OC)c3)C(=O)/C=C/c3cc(OC)c(OC)c(OC)c3)n2C)cc1`, the results for the pIC50 (in the assay on L929; in assay [3]; in assay [4]) were 4.74, 4.86 and 5.04, respectively.

The term pIC50 denotes −log10 of the IC50, conventionally taken in molar units. High values mean a small IC50, low ones a large IC50.
